Assay results as given in ChEMBL document CHEMBL1143211, “Inhibitors of proteases and amide hydrolases that employ an alpha-ketoheterocycle as a key enabling functionality” (Bioorg Med Chem, 2008).
Where a SMILES comes first, the peptide text is derived from it. [ ]: non-standard residue; d: D form. The star is where a group is joined. Pyrazinecarbonyl = O=C(c1cnccn1)*; Hyp = O=C(O)[C@@H]1C[C@@H](O)CN1; Abu = CC[C@H](N)C(=O)O; Bn = c1ccc(C*)cc1

Assays:
[1] = Inhibition of HCV NS34A protease; design: species or system Hepacivirus hominis
[2] = Selectivity for human neutrophil elastase over trypsin
[3] = Selectivity for human neutrophil elastase over chymotrypsin
[4] = Selectivity for human neutrophil elastase over cathepsinn G
[5] = Selectivity for rat FAAH over lipoprotein lipase
[6] = Selectivity for rat FAAH over carboxylesterase 1 lipase
[7] = Selectivity for rat FAAH over monoacylglycerol lipase
[8] = Selectivity for rat FAAH over triacylglycerol hydrolase
[9] = Inhibition of Trypanosoma cruzi prolyl endopeptidase Tc80
Complement factor B = Complement factor B (Homo sapiens, UniProt P00751); assay: Inhibition of C3 convertase
Chain of Complement factor B (P00751 whole entry): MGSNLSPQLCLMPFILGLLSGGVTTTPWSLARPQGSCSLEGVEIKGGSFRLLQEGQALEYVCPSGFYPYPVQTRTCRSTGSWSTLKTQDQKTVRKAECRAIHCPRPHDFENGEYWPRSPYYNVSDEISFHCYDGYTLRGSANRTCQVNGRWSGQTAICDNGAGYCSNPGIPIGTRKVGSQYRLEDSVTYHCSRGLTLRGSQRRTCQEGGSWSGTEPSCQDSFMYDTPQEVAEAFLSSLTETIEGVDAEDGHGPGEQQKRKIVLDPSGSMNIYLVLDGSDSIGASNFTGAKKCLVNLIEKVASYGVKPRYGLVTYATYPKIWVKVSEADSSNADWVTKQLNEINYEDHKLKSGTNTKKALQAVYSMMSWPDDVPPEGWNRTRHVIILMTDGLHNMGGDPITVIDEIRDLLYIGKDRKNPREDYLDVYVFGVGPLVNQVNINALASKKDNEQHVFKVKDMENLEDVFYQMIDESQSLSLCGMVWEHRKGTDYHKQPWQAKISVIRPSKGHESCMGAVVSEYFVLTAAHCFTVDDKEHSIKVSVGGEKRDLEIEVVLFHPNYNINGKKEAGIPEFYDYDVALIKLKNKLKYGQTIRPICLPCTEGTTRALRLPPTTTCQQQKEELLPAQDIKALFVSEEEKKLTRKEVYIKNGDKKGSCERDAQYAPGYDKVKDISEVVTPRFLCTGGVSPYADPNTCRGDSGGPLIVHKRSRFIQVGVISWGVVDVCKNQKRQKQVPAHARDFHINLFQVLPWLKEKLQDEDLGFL

[10] = Inhibition of Staphylococcus aureus methionine aminopeptidase
[11] = target: T1, Fatty-acid amide hydrolase 1 (Homo sapiens, UniProt O00519); assay: Inhibition of human recombinant FAAH
T1 sequence (O00519 whole entry): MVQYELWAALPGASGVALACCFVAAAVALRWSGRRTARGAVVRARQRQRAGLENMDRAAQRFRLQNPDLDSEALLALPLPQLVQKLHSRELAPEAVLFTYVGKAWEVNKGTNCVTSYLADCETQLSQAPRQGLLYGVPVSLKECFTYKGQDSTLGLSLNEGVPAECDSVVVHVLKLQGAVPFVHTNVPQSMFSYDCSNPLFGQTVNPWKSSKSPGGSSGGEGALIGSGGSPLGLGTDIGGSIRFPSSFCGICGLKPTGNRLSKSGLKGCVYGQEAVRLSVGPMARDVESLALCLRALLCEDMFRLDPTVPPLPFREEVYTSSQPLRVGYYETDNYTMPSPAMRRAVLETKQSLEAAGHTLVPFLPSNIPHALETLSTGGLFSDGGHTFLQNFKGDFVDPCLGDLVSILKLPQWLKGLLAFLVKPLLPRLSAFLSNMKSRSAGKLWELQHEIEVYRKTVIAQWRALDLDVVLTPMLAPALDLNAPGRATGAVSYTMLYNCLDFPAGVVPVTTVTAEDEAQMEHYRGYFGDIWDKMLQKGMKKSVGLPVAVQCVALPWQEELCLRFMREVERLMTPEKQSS

Homo sapiens [12] = species on record: Homo sapiens; assay: Selectivity for human recombinant cathepsin S over human recombinant K
Homo sapiens [13] = species on record: Homo sapiens; assay: Selectivity for human recombinant cathepsin S over human cathepsin B
Homo sapiens [14] = species on record: Homo sapiens; assay: Selectivity for human recombinant cathepsin S over human recombinant L
Coagulation factor X = Coagulation factor X (Homo sapiens, UniProt P00742); assay: Inhibition of human factor 10a
Chain of Coagulation factor X (P00742 41-179 limits assumed): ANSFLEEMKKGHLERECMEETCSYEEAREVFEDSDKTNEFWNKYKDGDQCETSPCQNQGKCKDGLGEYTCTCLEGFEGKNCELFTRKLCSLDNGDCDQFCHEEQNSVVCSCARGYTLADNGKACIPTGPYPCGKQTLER
Chain of Coagulation factor X (P00742 235-488 limits assumed): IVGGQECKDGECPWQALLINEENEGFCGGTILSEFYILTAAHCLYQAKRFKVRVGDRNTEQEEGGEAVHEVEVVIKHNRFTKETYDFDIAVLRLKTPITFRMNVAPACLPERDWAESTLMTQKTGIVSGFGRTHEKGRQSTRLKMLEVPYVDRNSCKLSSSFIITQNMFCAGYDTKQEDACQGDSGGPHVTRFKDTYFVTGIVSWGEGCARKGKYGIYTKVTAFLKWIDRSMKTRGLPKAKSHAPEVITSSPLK

Plasma kallikrein = Plasma kallikrein (Homo sapiens, UniProt P03952); assay: Inhibition of kallikrein
Chain of Plasma kallikrein (P03952 20-390 limits assumed): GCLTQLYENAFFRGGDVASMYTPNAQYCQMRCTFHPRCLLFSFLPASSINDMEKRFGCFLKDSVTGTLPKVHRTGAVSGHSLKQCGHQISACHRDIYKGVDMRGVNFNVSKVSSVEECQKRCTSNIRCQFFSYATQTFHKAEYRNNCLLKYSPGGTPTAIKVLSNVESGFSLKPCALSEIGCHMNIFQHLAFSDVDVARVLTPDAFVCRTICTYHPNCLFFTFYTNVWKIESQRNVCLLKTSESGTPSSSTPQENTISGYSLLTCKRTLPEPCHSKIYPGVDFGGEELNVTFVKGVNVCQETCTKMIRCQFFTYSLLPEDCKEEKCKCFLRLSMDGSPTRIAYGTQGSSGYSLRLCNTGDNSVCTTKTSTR
Chain of Plasma kallikrein (P03952 391-638 limits assumed): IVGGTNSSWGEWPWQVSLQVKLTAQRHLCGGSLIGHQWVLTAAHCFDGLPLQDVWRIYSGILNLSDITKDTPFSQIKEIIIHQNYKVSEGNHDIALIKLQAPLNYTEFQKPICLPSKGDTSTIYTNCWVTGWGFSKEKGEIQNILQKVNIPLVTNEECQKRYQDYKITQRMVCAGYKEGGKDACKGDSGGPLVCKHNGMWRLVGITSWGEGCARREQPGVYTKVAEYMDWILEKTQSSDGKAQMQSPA

Plasminogen = Plasminogen (Homo sapiens, UniProt P00747); assay: Inhibition of plasmin
Chain of Plasminogen (P00747 97-580 limits assumed): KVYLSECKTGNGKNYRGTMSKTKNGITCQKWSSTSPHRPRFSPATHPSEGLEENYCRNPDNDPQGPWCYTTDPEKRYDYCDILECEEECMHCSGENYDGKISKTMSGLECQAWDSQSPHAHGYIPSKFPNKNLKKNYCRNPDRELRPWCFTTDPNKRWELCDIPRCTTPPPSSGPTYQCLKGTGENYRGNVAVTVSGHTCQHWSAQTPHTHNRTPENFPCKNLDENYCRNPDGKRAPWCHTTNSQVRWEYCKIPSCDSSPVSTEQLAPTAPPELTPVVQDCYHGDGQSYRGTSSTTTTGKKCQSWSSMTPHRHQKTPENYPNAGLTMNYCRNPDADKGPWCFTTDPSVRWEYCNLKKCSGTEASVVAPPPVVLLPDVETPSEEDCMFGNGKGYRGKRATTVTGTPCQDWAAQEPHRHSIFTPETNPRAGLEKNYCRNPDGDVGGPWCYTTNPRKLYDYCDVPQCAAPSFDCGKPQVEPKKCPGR
Chain of Plasminogen (P00747 581-810 limits assumed): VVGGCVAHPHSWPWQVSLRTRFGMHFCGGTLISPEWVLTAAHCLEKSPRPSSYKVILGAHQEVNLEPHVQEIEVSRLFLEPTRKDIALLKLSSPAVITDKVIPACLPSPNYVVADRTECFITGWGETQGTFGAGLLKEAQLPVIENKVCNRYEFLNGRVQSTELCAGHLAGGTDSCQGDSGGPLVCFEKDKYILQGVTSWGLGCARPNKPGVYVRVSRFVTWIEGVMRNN

[15] = target: Tissue-type plasminogen activator (Homo sapiens, UniProt P00750); assay: Inhibition of tPA
Chain of Tissue-type plasminogen activator (P00750 whole entry): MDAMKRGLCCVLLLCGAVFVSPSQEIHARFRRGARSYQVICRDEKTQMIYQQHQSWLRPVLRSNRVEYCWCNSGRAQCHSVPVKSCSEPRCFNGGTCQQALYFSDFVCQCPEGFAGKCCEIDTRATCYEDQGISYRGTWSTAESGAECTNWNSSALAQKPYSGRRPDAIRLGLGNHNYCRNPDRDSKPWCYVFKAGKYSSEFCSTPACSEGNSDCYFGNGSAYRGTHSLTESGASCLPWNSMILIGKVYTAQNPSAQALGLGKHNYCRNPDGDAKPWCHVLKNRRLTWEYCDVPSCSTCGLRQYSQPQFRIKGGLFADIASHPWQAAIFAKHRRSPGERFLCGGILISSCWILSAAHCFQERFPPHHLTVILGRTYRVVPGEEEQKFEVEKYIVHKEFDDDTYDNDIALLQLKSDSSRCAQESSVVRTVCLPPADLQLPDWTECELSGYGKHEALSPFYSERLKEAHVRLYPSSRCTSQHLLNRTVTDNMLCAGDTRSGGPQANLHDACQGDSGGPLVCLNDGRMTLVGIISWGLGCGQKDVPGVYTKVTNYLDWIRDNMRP

Chymase = Chymase (Homo sapiens, UniProt P23946)
Chain of Chymase (P23946 whole entry): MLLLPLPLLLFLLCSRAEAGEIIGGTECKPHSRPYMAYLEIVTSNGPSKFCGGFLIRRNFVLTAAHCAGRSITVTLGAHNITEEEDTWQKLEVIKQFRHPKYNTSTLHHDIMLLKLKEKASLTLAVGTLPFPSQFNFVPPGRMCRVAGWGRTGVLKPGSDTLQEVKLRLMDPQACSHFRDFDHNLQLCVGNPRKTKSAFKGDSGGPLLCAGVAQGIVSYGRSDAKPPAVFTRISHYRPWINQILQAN

[16] = Selectivity for human chymase over cathepsin G
[17] = Selectivity for human chymase over bovine chymotrypsin
[18] = Oral bioavailability in rat; type: ADME, organism-based; conditions: in vivo
[19] = Selectivity for human beta-tryptase over uPA
[20] = Selectivity for human beta-tryptase over plasmin
[21] = Inhibition of human beta-tryptase
[22] = Selectivity for human beta-tryptase over trypsin
Homo sapiens [23] = species on record: Homo sapiens; assay: Selectivity for human beta-tryptase over human alpha thrombin
[24] = Selectivity for human beta-tryptase over kallikrein
[25] = Selectivity for human alpha-thrombin over plasmin
[26] = Selectivity for human alpha-thrombin over tissue plasminogen activator
[27] = Selectivity for human alpha-thrombin over uPA
[28] = Selectivity for human alpha-thrombin over factor 10a

Work on `CC[C@H](NC(=O)[C@@H]1C[C@@H](OCc2ccccc2)CN1C(=O)[C@@H](NC(=O)[C@@H](NC(=O)c1cnccn1)C(C)C)C(C)C)C(=O)c1nnc(-c2ccccc2)o1` yielded a Ki [1] of 35000 nM.
`Cc1cccc(Cc2nnc(C(=O)[C@@H](NC(=O)[C@@H]3CCCN3C(=O)[C@@H](NC(=O)OCc3ccccc3)C(C)C)C(C)C)o2)c1` gave a Selectivity ratio [2] greater than 1000, a Selectivity ratio [3] greater than 1000 and a Selectivity ratio [4] greater than 1000.
With `O=C(CCCCCc1ccccc1)c1nc2ncccc2o1` the Selectivity ratio [5] was greater than 10000, the Selectivity ratio [6] was greater than 10000 and the Selectivity ratio [7] was greater than 10000. The Selectivity ratio [8] was 10.
With `O=C(C1=NOC(COCc2ccccc2)C1)[C@@H]1CCCN1C(=O)[C@@H]1CCCN1C(=O)OCc1ccccc1` (stereo not given in full) the Ki [9] was 1.2 nM.
For `CC[C@H](C)[C@H](N)C(=O)N[C@H]1CSSC[C@@H](C(=O)N[C@H](C(N)=O)[C@@H](C)O)NC(=O)[C@H](CCCN=C(N)N)NC(=O)[C@H](Cc2cnc[nH]2)NC(=O)[C@H](Cc2cnc[nH]2)NC(=O)CNC(=O)[C@H](Cc2c[nH]c3ccccc23)NC(=O)[C@H](CC(=O)O)NC(=O)[C@H](CCC(N)=O)NC(=O)[C@H](C(C)C)NC(=O)[C@H](C(C)C)NC1=O` [COMPSTATIN], the IC50 (Complement factor B) was 3400 nM.
`CSCCC(N)C(=O)c1ccccn1` (racemic) gave an IC50 [10] of 16000 nM.
With `CCCCCCCC/C=C\CCCCCCCC(=O)c1nc2ncccc2o1` the Ki [11] was 13 nM and the Selectivity ratio [8] was 30.
For `O=C(N[C@H](C(=O)c1nc2ccccc2o1)C1CC1)O[C@@H](CC1CCCCC1)C(=O)N1CCOCC1`, the Selectivity ratio (Homo sapiens [12]) was greater than 100, the Selectivity ratio (Homo sapiens [13]) was greater than 100 and the Selectivity ratio (Homo sapiens [14]) was greater than 100.
For `NC(N)=NCCC[C@H](NC(=O)CNC(=O)[C@@H](CCCN=C(N)N)NS(=O)(=O)CCc1ccccc1)C(=O)c1nc2ccccc2o1`, the IC50 (Coagulation factor X) was 2 nM, the IC50 (Plasma kallikrein) was 13 nM and the IC50 (Plasminogen) was 36 nM. For the same molecule, the IC50 [15] was 29 nM.
For `COC(=O)c1ccc2oc(C(=O)[C@H](Cc3ccccc3)NC(=O)Cn3c(-c4ccc(F)cc4)ncc(N)c3=O)nc2c1`, the Ki (Chymase) was 23 nM.
In the case of `CC[C@@H](C=O)NC(=O)[C@@H]1C[C@@H](OCc2ccccc2)CN1C(=O)[C@@H](NC(=O)[C@@H](NC(=O)c1cnccn1)C(C)C)C(C)C` (Pyrazinecarbonyl-VV[Hyp](Bn)[Abu]-aldehyde), the Ki [1] is reported as 16000 nM.
`COC(=O)c1ccc2oc(C(=O)[C@H](Cc3ccccc3)NC(=O)Cn3c(-c4cccc(OC)c4)ncc(N)c3=O)nc2c1` showed a Selectivity ratio [16] of 80, a Selectivity ratio [17] of 200 and a Ki (Chymase) of 4.8 nM. The bioavailability [18] was 20%.
Work on `CCCCCCCC/C=C\CCCCCCCC(=O)c1nc2ccccc2o1` yielded a Ki [11] of 73 nM.
`CCOC(=O)N[C@@H](CCCCN)C(=O)c1noc(Cc2ccc(OCCc3ccccc3)cc2)n1` gave a Selectivity ratio [19] greater than 1000, a Selectivity ratio [20] of 80 and a Ki [21] of 5 nM. For the same molecule, the Selectivity ratio [22] was 35, the Selectivity ratio (Homo sapiens [23]) was greater than 1000 and the bioavailability [18] was 8%. It also gave a Selectivity ratio [24] greater than 1000.
`CC(=O)N1C[C@H](O)C[C@H]1C(=O)N[C@@H](CCCN=C(N)N)C(=O)c1nc2ccccc2s1` gave a Selectivity ratio [25] greater than 500, a Selectivity ratio [26] greater than 500 and a Selectivity ratio [27] of 200. For the same molecule, the Selectivity ratio [28] was greater than 500, the Ki [21] was 10 nM and the Selectivity ratio [24] was 30.
